Measured values from patent US11512097B2, “Heterocyclic compounds as Delta-5 desaturase inhibitors and methods of use” (Amgen Inc., priority 2019, dated 2022).

Each compound was assayed against T1, Delta-5-Desaturase (D5D), membrane preparations of D5D-overexpressing HEK293 6E cells (Homo sapiens, UniProt O60427) (assay: In vitro measurement of Delta-5-Desaturase inhibitory activity using DGLA-CoA and Arachidonyl-CoA mass spectrometric assays). Conditions: D5D membrane 10 μg/mL, one-hour incubation, average of at least two independent runs.
T1 construct: expressed in transfected cells; host or cells: HEK293 6E cells (membrane preparation)
T1 sequence (O60427 whole entry, species assumed): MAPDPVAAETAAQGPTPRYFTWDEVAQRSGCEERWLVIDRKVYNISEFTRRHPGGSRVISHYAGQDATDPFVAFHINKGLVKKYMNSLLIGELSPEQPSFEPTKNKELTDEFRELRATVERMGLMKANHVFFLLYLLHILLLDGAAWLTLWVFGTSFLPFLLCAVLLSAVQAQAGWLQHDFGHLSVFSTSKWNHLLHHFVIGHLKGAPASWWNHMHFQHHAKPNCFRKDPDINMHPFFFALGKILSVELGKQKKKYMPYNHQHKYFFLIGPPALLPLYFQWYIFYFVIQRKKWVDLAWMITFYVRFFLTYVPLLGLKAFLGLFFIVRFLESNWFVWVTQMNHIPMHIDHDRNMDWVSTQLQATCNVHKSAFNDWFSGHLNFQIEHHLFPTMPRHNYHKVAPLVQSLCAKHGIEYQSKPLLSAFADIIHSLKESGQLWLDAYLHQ
Type: biochemical
Method: In Vitro Measurement of Delta-5-Desaturase Inhibitory Activity Using DGLA-CoA and Arachidonyl-CoA Mass Spectrometric Assays Membrane preparations of D5D-overexpressing HEK293 6E cells were prepared in which the total protein concentration was 5.6 mg/mL. Stock D5D membrane preparations were diluted in D5D assay buffer (25 mM 2-amino-2-(hydroxymethyl)-1,3-propanediol, pH 7.5 containing 10 mM MgCl2, 1 mM octyl glucoside (SigmaAldrich O-8001), 1 mM tris(2-carboxyethyl)phosphine hydrochloride (SigmaAldrich 646547)) to a final D5D membrane concentration of 10 μg/mL in an assay plate containing serially diluted test compounds. To 15 μL of this D5D preparation was added 15 μL of a substrate solution (0.25 mM NADH (nicotinamide adenine dinucleotide, Roche Diag. 10107735001), 0.25 mM adenosine triphosphate (SigmaAldrich A-3377), 0.05 mM coenzyme A hydrate (SigmaAldrich C-4282), and 0.01 mM DGLA (dihomo-g-linolenic acid, Sigma E-4504) in the same D5D assay buffer. After one-hour incubation at ambient temperature acetonitrile (30 μL) was added to quench the reaction and plates were centrifuged for 10 min @ 3,000 rpm. Mass spectrometric analysis involved a Rapidfire 360 SPE system coupled to an ABSciex API4000 Triple Quadrupole mass spectrometer using a C18 SPE cartridge (G9203-80105) with ionization in negative mode (solvent A=100% water; solvent B=100% acetonitrile, each solvent containing 5 mM ammonium acetate). DGLA-CoA and Arachidonyl-CoA were detected by multiple reaction monitoring (MRM) of the doubly charged parent ions at m/z 526.6 and 525.6, respectively. […] Sx is value from unknown sample, So is value from DMSO alone and Sc is value from no enzyme well. For CRC analysis, the % of inhibitions were analysed with 4 Parameter Logistic Model or Sigmoidal Dose-Response Model using XLfit (IDBS, Guilford, UK). The potency of the test item was expressed as IC50 nM, corresponding to the test item concentration able to inhibit the 50% of the enzyme maximal response. IC50 values were averaged values determined by at least two independent runs. The results presented in Table 15 have been generated with the in vitro assay described above. This assay may be used to test any of the compounds described herein to assess and characterize a compound's ability to inhibit D5D.

IC50 | SMILES
0.0023 µM | O=c1c(-c2ccc(OCC(F)(F)F)cc2)c(C(F)(F)F)nc2sccn12 [Example 31, 6-[4-(2,2,2-trifluoroethoxy)phenyl]-7-(trifluoromethyl)-5H-[1,3]thiazolo[3,2-a]pyrimidin-5-one]
0.026 µM | Cc1cn2c(=O)c(-c3cnn(CC4CC4(F)F)c3)c(C(F)(F)F)nc2[nH]1 (racemic) [Example 76, 6-{1-[(2,2-difluorocyclopropyl)methyl]-1H-pyrazol-4-yl}-2-methyl-7-(trifluoromethyl)-1H,5H-imidazo[1,2-a]pyrimidin-5-one]
0.0047 µM | Cc1cn2c(=O)c(-c3cnn(CCC(F)(F)F)c3)c(C(F)(F)F)nc2[nH]1 [Example 74, 2-methyl-7-(trifluoromethyl)-6-[1-(3,3,3-trifluoropropyl)-1H-pyrazol-4-yl]-1H,5H-imidazo[1,2-a]pyrimidin-5-one]
0.354 µM | O=c1c(-c2cnn(CC(F)(F)C(F)(F)F)c2)c(C(F)(F)F)nc2n1CC1CC21 (stereo not shown) [Example 25, 8-[1-(2,2,3,3,3-pentafluoropropyl)-1H-pyrazol-4-yl]-9-(trifluoromethyl)-6,10-diazatricyclo[4.4.0.0^2,4]deca-1(10),8-dien-7-one]
0.158 µM | Cc1nn2c(=O)c(-c3cnn(CC4CC4(F)F)c3)c(C(F)(F)F)nc2s1 (stereo not shown) [Example 23, 6-{1-[(2,2-difluorocyclopropyl)methyl]-1H-pyrazol-4-yl}-2-methyl-7-(trifluoromethyl)-5H-[1,3,4]thiadiazolo[3,2-a]pyrimidin-5-one]
0.877 µM | CCOc1nc2sc(C)nn2c(=O)c1-c1cnn(CC(F)(F)C(F)(F)F)c1 [Example 41, 7-ethoxy-2-methyl-6-[1-(2,2,3,3,3-pentafluoropropyl)-1H-pyrazol-4-yl]-5H-[1,3,4]thiadiazolo[3,2-a]pyrimidin-5-one]
0.239 µM | Cc1cn2c(=O)c(-c3cnn(CC(F)(F)C(F)(F)F)c3)c(C(F)(F)F)nc2n1CC(C)O (stereo not shown) [Example 64, 1-(2-hydroxypropyl)-2-methyl-6-[1-(2,2,3,3,3-pentafluoropropyl)-1H-pyrazol-4-yl]-7-(trifluoromethyl)-1H,5H-imidazo[1,2-a]pyrimidin-5-one]
0.133 µM | O=c1c(-c2cnn(CC(F)(F)C(F)(F)F)c2)c(C(F)(F)F)nc2sc(C3CC3)nn12 [Example 11, 2-cyclopropyl-6-[1-(2,2,3,3,3-pentafluoropropyl)-1H-pyrazol-4-yl]-7-(trifluoromethyl)-5H-[1,3,4]thiadiazolo[3,2-a]pyrimidin-5-one]
0.0494 µM | C[C@@H]1Cn2c(nc(C(F)(F)F)c(-c3cnn(CC(F)(F)C(F)(F)F)c3)c2=O)S1 (single isomer, unassigned) [Example 114]
0.861 µM | Cc1nn2c(=O)c(-c3cnn(C[C@@H]4CC4(F)F)c3)c(C(F)(F)F)nc2s1 (single isomer, unassigned) [Example 112]
0.132 µM | Cc1cn2c(=S)c(-c3cnn(CC(F)(F)C(F)(F)F)c3)c(C(F)(F)F)nc2n1C [Example 92, 1,2-dimethyl-6-[1-(2,2,3,3,3-pentafluoropropyl)-1H-pyrazol-4-yl]-7-(trifluoromethyl)-1H,5H-imidazo[1,2-a]pyrimidine-5-thione]
0.0274 µM | COCc1nn2c(=O)c(-c3cnn(CC(F)(F)C(F)(F)F)c3)c(C(F)(F)F)nc2s1 [Example 42, 2-(methoxymethyl)-6-[1-(2,2,3,3,3-pentafluoropropyl)-1H-pyrazol-4-yl]-7-(trifluoromethyl)-5H-[1,3,4]thiadiazolo[3,2-a]pyrimidin-5-one]
0.271 µM | O=c1c(-c2cnn(CC(F)(F)C(F)(F)F)c2)c(C(F)(F)F)nc2scc(C(F)(F)F)n12 [Example 6, 6-[1-(2,2,3,3,3-pentafluoropropyl)-1H-pyrazol-4-yl]-3,7-bis(trifluoromethyl)-5H-[1,3]thiazolo[3,2-a]pyrimidin-5-one]
0.0064 µM | Cc1cn2c(=O)c(-c3cnn(CCC(F)(F)F)c3)c(C(F)(F)F)nc2n1C [Example 53, 1,2-dimethyl-7-(trifluoromethyl)-6-[1-(3,3,3-trifluoropropyl)-1H-pyrazol-4-yl]-1H,5H-imidazo[1,2-a]pyrimidin-5-one]
0.482 µM | Cc1csc2nc(C(F)(F)F)c(-c3cnn(CC(F)(F)C(F)(F)F)c3)c(=O)n12 [Example 5, 3-methyl-6-[1-(2,2,3,3,3-pentafluoropropyl)-1H-pyrazol-4-yl]-7-(trifluoromethyl)-5H-[1,3]thiazolo[3,2-a]pyrimidin-5-one]
0.331 µM | O=c1c(-c2cnn(CC(F)(F)C(F)(F)F)c2)c(C(F)(F)F)nc2[nH]c(Cl)cn12 [Example 49, 2-chloro-6-[1-(2,2,3,3,3-pentafluoropropyl)-1H-pyrazol-4-yl]-7-(trifluoromethyl)-1H,5H-imidazo[1,2-a]pyrimidin-5-one]
0.0071 µM | C#CCn1c(C)cn2c(=O)c(-c3cnn(CC(F)(F)C(F)(F)F)c3)c(C(F)(F)F)nc12 [Example 85, 2-methyl-6-[1-(2,2,3,3,3-pentafluoropropyl)-1H-pyrazol-4-yl]-1-(prop-2-yn-1-yl)-7-(trifluoromethyl)-1H,5H-imidazo[1,2-a]pyrimidin-5-one]
0.0117 µM | Cc1cn2c(=O)c(-c3cnn(CC(F)(F)C(F)(F)F)c3)c(C(F)(F)F)nc2n1CCO [Example 79, 1-(2-hydroxyethyl)-2-methyl-6-[1-(2,2,3,3,3-pentafluoropropyl)-1H-pyrazol-4-yl]-7-(trifluoromethyl)-1H,5H-imidazo[1,2-a]pyrimidin-5-one]
0.301 µM | Cc1cn2c(=O)c(-c3cnn(CC(F)(F)C(F)(F)F)c3)c(C(F)(F)F)nc2n1-c1cn[nH]c1 [Example 103, 2-methyl-6-[1-(2,2,3,3,3-pentafluoropropyl)-1H-pyrazol-4-yl]-1-(1H-pyrazol-4-yl)-7-(trifluoromethyl)-1H,5H-imidazo[1,2-a]pyrimidin-5-one]
0.104 µM | Cc1nn2c(=O)c(-c3cnn(CC4CC(F)(F)C4)c3)c(C(F)(F)F)nc2s1 [Example 26, 6-{1-[(3,3-difluorocyclobutyl)methyl]-1H-pyrazol-4-yl}-2-methyl-7-(trifluoromethyl)-5H-[1,3,4]thiadiazolo[3,2-a]pyrimidin-5-one]
0.146 µM | COCCn1c(C)cn2c(=O)c(-c3cnn(CC(F)(F)C(F)(F)F)c3)c(C(F)(F)F)nc12 [Example 57, 1-(2-methoxyethyl)-2-methyl-6-[1-(2,2,3,3,3-pentafluoropropyl)-1H-pyrazol-4-yl]-7-(trifluoromethyl)-1H,5H-imidazo[1,2-a]pyrimidin-5-one]
0.0463 µM | O=c1c(-c2cnn(CC(F)(F)C(F)(F)F)c2)c(C(F)(F)F)nc2n1CCC2 [Example 19, 3-[1-(2,2,3,3,3-pentafluoropropyl)-1H-pyrazol-4-yl]-2-(trifluoromethyl)-4H,6H,7H,8H-pyrrolo[1,2-a]pyrimidin-4-one]
0.247 µM | Cc1cn2c(=O)c(-c3cnn(CC(F)(F)C(F)(F)F)c3)c(C(F)(F)F)nc2n1-c1cnccn1 [Example 95, 2-methyl-6-[1-(2,2,3,3,3-pentafluoropropyl)-1H-pyrazol-4-yl]-1-(pyrazin-2-yl)-7-(trifluoromethyl)-1H,5H-imidazo[1,2-a]pyrimidin-5-one]
0.0328 µM | COc1cn2c(=O)c(-c3cnn(CC(F)(F)C(F)(F)F)c3)c(C(F)(F)F)nc2n1C [Example 71, 2-methoxy-1-methyl-6-[1-(2,2,3,3,3-pentafluoropropyl)-1H-pyrazol-4-yl]-7-(trifluoromethyl)-1H,5H-imidazo[1,2-a]pyrimidin-5-one]
0.0115 µM | Cn1ccn2c(=O)c(-c3cnn(CC(F)(F)C(F)(F)F)c3)c(C(F)(F)F)nc12 [Example 37, 1-methyl-6-[1-(2,2,3,3,3-pentafluoropropyl)-1H-pyrazol-4-yl]-7-(trifluoromethyl)-1H,5H-imidazo[1,2-a]pyrimidin-5-one]
61.5 µM | CNCc1nn2c(=O)c(-c3cnn(CC(F)(F)C(F)(F)F)c3)c(C(F)(F)F)nc2s1 [Example 106, 2-[(methylamino)methyl]-6-[1-(2,2,3,3,3-pentafluoropropyl)-1H-pyrazol-4-yl]-7-(trifluoromethyl)-5H-[1,3,4]thiadiazolo[3,2-a]pyrimidin-5-one]
0.0118 µM | C[C@H]1Cn2c(nc(C(F)(F)F)c(-c3cnn(CC(F)(F)C(F)(F)F)c3)c2=O)S1 (single isomer, unassigned) [Example 113]
0.118 µM | CC(C)N1C(=O)Cn2c1nc(C(F)(F)F)c(-c1cnn(CC(F)(F)C(F)(F)F)c1)c2=O [Example 35, 6-[1-(2,2,3,3,3-pentafluoropropyl)-1H-pyrazol-4-yl]-1-(propan-2-yl)-7-(trifluoromethyl)-1H,2H,3H,5H-imidazo[1,2-a]pyrimidine-2,5-dione]
